Experimental data taken from patent US20170106027A1, “COMPOSITIONS AND METHODS OF IMPROVING PERFORMANCE AND INTESTINAL HEALTH OF POULTRY” (Kemin Industries, Inc., priority 2015, published 2017).
“And” between values parts separate entries of the source, which are not always exact repeats. Identical values can stand only once. Like-named read-outs stand apart in the source and are kept apart here.

What was measured:
E. tenella [1] = assay type: in vivo, Cobb×Cobb 500 male broiler chicks; conditions: feces d35
E. maxima [2] = assay type: in vivo, Cobb×Cobb 500 male broiler chicks; conditions: feces d35
E. acervulina [3] = assay type: in vivo, Cobb×Cobb 500 male broiler chicks; conditions: feces d35
E. maxima [4] = assay type: in vivo, Cobb×Cobb 500 male broiler chicks; conditions: scored d35, scale 0-4
E. tenella [5] = assay type: in vivo, Cobb×Cobb 500 male broiler chicks; conditions: scored d35, scale 0-4
[6] = test system: mixed Eimeria challenge (E. acervulina, E. maxima, E. tenella); set-up: species or system Cobb×Cobb 500 male broiler chicks; conditions: in vivo
E. acervulina [7] = assay type: in vivo, Cobb×Cobb 500 male broiler chicks; conditions: scored d35, scale 0-4
[8] = test system: Eimeria tenella sporozoites; assay: In vitro MTT assay of Eimeria tenella sporozoite viability
C. perfringens = assay type: in vivo, Cobb×Cobb 500 male broiler chicks
[9] = Treatments In (kept in basal diet d28-35)
[10] = Treatments Out (removed from basal diet d28-35)

CC[C@@H](C(=O)[C@@H](C)[C@@H](O)[C@H](C)[C@@H]1O[C@@H]([C@@H](CC)C(=O)O)CC[C@@H]1C)[C@H]1O[C@]2(C=C[C@@H](O)[C@]3(CC[C@@](C)([C@H]4CC[C@](O)(CC)[C@H](C)O4)O3)O2)[C@H](C)C[C@@H]1C [BioCox ®, salinomycin]
Average oocysts per gram (OPG) in feces E. tenella (E. tenella [1]; Treatments In): 1167 oocysts per gram
Average oocysts per gram (OPG) in feces E. tenella (E. tenella [1]; Treatments Out): 1668 oocysts per gram
Average oocysts per gram (OPG) in feces E. maxima (E. maxima [2]; Treatments In): 67 oocysts per gram
Average oocysts per gram (OPG) in feces E. maxima (E. maxima [2]; Treatments Out): 0 oocysts per gram
Average oocysts per gram (OPG) in feces E. acervulina (E. acervulina [3]; Treatments In): 734 oocysts per gram
Average oocysts per gram (OPG) in feces E. acervulina (E. acervulina [3]; Treatments Out): 19510 oocysts per gram
Average lesion score E. maxima (E. maxima [4]; [9]): 0.60
Average lesion score E. maxima (E. maxima [4]; [10]): 0.78
Average lesion score E. tenella (E. tenella [5]; [9]): 1.05
Average lesion score E. tenella (E. tenella [5]; [10]): 1.00
Average lesion score Overall [6]: 0.87 and 1.09
Average lesion score E. acervulina (E. acervulina [7]; [9]): 0.95
Average lesion score E. acervulina (E. acervulina [7]; [10]): 1.50

N=C(N/N=C/c1ccc(Cl)cc1)N/N=C/c1ccc(Cl)cc1 [Robenz ®, Robenidine]
Average oocysts per gram (OPG) in feces E. tenella (E. tenella [1]; Treatments In): 1034 oocysts per gram
Average oocysts per gram (OPG) in feces E. tenella (E. tenella [1]; Treatments Out): 3468 oocysts per gram
Average oocysts per gram (OPG) in feces E. maxima (E. maxima [2]; Treatments In): 0 oocysts per gram
Average oocysts per gram (OPG) in feces E. maxima (E. maxima [2]; Treatments Out): 600 oocysts per gram
Average oocysts per gram (OPG) in feces E. acervulina (E. acervulina [3]; Treatments In): 1301 oocysts per gram
Average oocysts per gram (OPG) in feces E. acervulina (E. acervulina [3]; Treatments Out): 4869 oocysts per gram
Average lesion score E. maxima (E. maxima [4]; [9]): 0.30
Average lesion score E. maxima (E. maxima [4]; [10]): 0.68
Average lesion score E. tenella (E. tenella [5]; [9]): 2.30
Average lesion score E. tenella (E. tenella [5]; [10]): 1.00
Average lesion score Overall [6]: 1.02
Average lesion score E. acervulina (E. acervulina [7]; [9]): 0.45
Average lesion score E. acervulina (E. acervulina [7]; [10]): 1.38

O=C(OC[C@H]1O[C@@H](OC(=O)c2cc(O)c(O)c(OC(=O)c3cc(O)c(O)c(O)c3)c2)[C@H](OC(=O)c2cc(O)c(O)c(OC(=O)c3cc(O)c(O)c(O)c3)c2)[C@@H](OC(=O)c2cc(O)c(O)c(OC(=O)c3cc(O)c(O)c(O)c3)c2)[C@@H]1OC(=O)c1cc(O)c(O)c(OC(=O)c2cc(O)c(O)c(O)c2)c1)c1cc(O)c(O)c(OC(=O)c2cc(O)c(O)c(O)c2)c1 [tannic acid]
additional decrease of sporozoite viability ([8]; 100 ppm compared to 50 ppm): 5%
sporozoite viability (in words) ([8]; MTT assay, 50 and 100 ppm, salinomycin 60 ppm positive control): reductions were greater

bacitracin methylene disalicylate [BMD]
mortality due to necrotic enteritis (in words) (C. perfringens; C. perfringens challenged birds): reduced
FCR (in words) (C. perfringens; C. perfringens challenged broilers): improved FCR
FCR (0-21 days) (C. perfringens; challenged with C. perfringens d19, 20, 21, FCR adjusted for mortality): 1.904
